Reference: patent US9714249B2 (Novartis AG, priority 2013, dated 2017)

Assays:
THP-1 cells = assay: Cell growth inhibition assay (CellTiter-Glo), THP-1; assay type: cell-based, human; details: THP-1, 4 days; for GI50: half-maximal growth inhibition; for THP-1 TGI: total growth inhibition
Protocol: The human leukemia cell lines MV-4-11, THP-1 and K-562 were employed to characterize the effect of BET inhibitors on cellular proliferation and viability. Cells were obtained from the American Type Culture Collection (ATCC) and cultured at 37° C. in a humidified 5% CO2 incubator in the following media: MV-4-11: DMEM high glucose (Animed #1-26F01-I), 10% FCS (Animed #2-01F26-I), 4 mM L-Glutamine (Animed #5-10K50), 1 mM Sodium Pyruvate (Animed # G03625P), 1× Penicillin-Streptomycin (Animed # F12478P); K-562: Iscove's MEM (Animed #1-28F16-I), 10% FCS (Animed #2-01F26-I), 4 mM L-Glutamine (Animed #5-10K50), 1× Penicillin-Streptomycin (Animed # F12478P); THP-1: RPMI-1640 (Animed #1-41F01-I), 10% FCS (Animed #2-01F26-I), 2 mM L-Glutamine (Animed #5-10K50), 10 mM HEPES (Animed #5-31F100), 1 mM Sodium Pyruvate (Animed # G03625P), 1× Penicillin-Streptomycin (Animed # F12478P). The AML lines MV-4-11 and THP-1 are very sensitive to BET inhibitors and show massive cell death upon BET inhibition (Zuber et al., Nature, 478 (2011), 524-8). Compound-mediated suppression of cell proliferation/viability was assessed by quantification of cellular ATP levels using the CellTiter-Glo (CTG) reagent (Promega). Briefly, cells were seeded in 20 μl fresh medium into 384-well plates, followed by addition of 5 μl medium containing compound dilutions at 5-fold their final intended concentration. Dose-response effects were assessed by 3-fold serial dilutions of the test compound, starting at 10 μM. Following incubation of the cells for 4 days at 37° C. and 5% CO2, the effect of inhibitors on cell viability was quantified following addition of 20 μl CTG and luminescence quantification (integration time: 100 ms) as per vendor manual, using a correspondingly equipped Tecan M200 multi-mode platereader (TECAN, Switzerland). For data analysis, the assay background value determined in wells containing medium, but no cells, was subtracted from all data points. To enable differentiation of cytotoxic from cytostatic compounds, the number of viable cells is assessed relative to that observed at the time of compound addition using a separate cell plate (day 0). The effect of a particular test compound concentration on cell proliferation/viability is expressed as percentage of the background- and day 0-corrected luminescence reading obtained for cells treated with vehicle only (DMSO, 0.1% final concentration), which is set as 100%, whereas that luminescence reading for wells containing medium is set as −100%. Compound concentrations leading to half-maximal (1050) and total growth inhibition (TGI) were determined using standard four parameter curve fitting.

BRD4-NUT-fusion = BRD4-NUT-fusion (Homo sapiens (Human), UniProt O60885+Q86Y26); assay: Nut-foci formation assay (HCS) in HCC2494 NUT midline carcinoma cells; assay type: cell-based; details: 24 hours, nuclear BRD4-NUT foci, immunofluorescence
Protocol: Compound-mediated inhibition of BRD4 activity was monitored by quantification of the number and intensity of nuclear BRD4-NUT foci using automated immunofluorescence microscopy. Briefly, 5000 cells in 20 μl fresh medium were seeded into Poly-D-Lysine-precoated 384-well plates and incubated overnight at 37° C. and 5% CO2, followed by addition of 5 μl medium containing compound dilutions at 5-fold their final intended concentration. Dose-response effects were assessed by 3-fold serial dilutions of the test compound, starting at 10 μM. […] Assay plates were imaged using the appropriate filter sets on the Cellomics VTi automated fluorescence microscopy platform (ThermoFisher Scientific) and the population average of the number of NUT-foci per nucleus is quantified using the Cellomics Spot Detection BioApplication image analysis algorithm (ThermoFisher Scientific). The effect of a particular test compound concentration on NUT-foci number and intensity is expressed as percentage of the value obtained for cells treated with vehicle only (DMSO, 0.1% final concentration), which was set as 100.

BRD4 (His-Brd4(44-477)) = BRD4 (His-Brd4(44-477)) (Homo sapiens (Human), UniProt O60885); assay: TR-FRET in-vitro binding assay for BRD4; details: acetyl-histone H4 peptide
Protocol: All assays were performed in 384 well microtiter plates. Each assay plate contained 8-point serial dilutions for 40 test compounds, plus 16 high- and 16 low controls. Liquid handling and incubation steps were done on an Innovadyne Nanodrop Express equipped with a robotic arm (Thermo CatX, Perkin Elmer/Caliper Twister II) and an incubator (Liconic STX40, Thermo Cytomat 2C450). The assay plates were prepared by addition of 50 nl per well of compound solution in 90% DMSO HummingBird nanodispenser (Zinsser Analytic). […] Reactions were incubated at 30° C. for 35 minutes. […] After 35 minutes incubation at 30° C., plates were measured in a Perkin Elmer EnVision multilabel reader.
(§1) Test compounds were dissolved in DMSO (10 mM) and transferred into 1.4 mL flat bottom or V-shaped Matrix tubes carrying a unique 2D matrix. The stock solutions were stored at […] if not used immediately. For the test procedure the vials were defrosted and identified by a scanner whereby a working sheet was generated that guided the subsequent working steps. Compound dilutions were made in 96 well plates. This format enabled the assay of maximally 40 individual test compounds at 8 concentrations (single points) including 4 reference compounds, if desired (known BET inhibitors from the prior art, for this and other assays of the type disclosed herein). The dilution protocol included the production of “pre-dilution plates”, “master plates” and “assay plates”.
(§2) Pre-dilution plates: 96 polypropylene well plates were used as pre-dilution plates. A total of 4 pre-dilution plates were prepared including 10 test compounds each on the plate positions A1-A10, one standard compound at A11 and one DMSO control at A12. All dilution steps were done on a HamiltonSTAR robot. […] These plates were used directly for the assay which was performed in a total volume of 13.55 μL. […] Cell Growth Inhibition Assay

[1] = biological target: CREBBP bromodomain (His-CREBBP (1081-1197)) (Homo sapiens (Human), UniProt Q92793); assay: AlphaScreen in-vitro binding assay for CREBBP; details: acetyl-histone H4 peptide
Protocol: In order to assess bromodomain selectivity, we set up a binding assay using the bromodomain encoded by the CREBBP gene. […] Reactions were incubated at 30° C. for 35 minutes. Subsequently 4.5 μl per well detection mix (50 mM HEPES, pH 7.5, 0.005% Tween20, 0.02% BSA, 150 mM NaCl, 45 μg/ml Ni-chelate acceptor beads, 45 μg/ml streptavidin-donor beads) (Perkin Elmer)) were added. After 60 minutes incubation at room temperature, plates were measured in a Perkin Elmer EnVision multilabel reader. IC50 values were determined from percent inhibition values at different compound concentrations by non-linear regression analysis.
as §1, §2

CREBBP bromodomain (His-CREBBP (1081-1197)), sequence (Q92793 1081-1197): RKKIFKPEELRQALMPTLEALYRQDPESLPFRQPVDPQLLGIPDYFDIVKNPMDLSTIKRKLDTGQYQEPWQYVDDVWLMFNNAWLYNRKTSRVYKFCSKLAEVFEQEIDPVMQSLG

| SMILES | GI50 (THP-1 cells) | THP-1 TGI (THP-1 cells) | IC50 (BRD4-NUT-fusion) | IC50 (BRD4 (His-Brd4(44-477))) | IC50 [1] | GI50 (THP-1 cells; Homo sapiens, 96 h) |
| --- | --- | --- | --- | --- | --- | --- |
| CNC1=C(C(=N)C2CC2)C(=O)N(c2cc(C)c(=O)n(C)c2)[C@@H]1c1ccc(Cl)cc1 [Example 2] | 21.9 nM | 46.8 nM | 20.1 nM | 16 nM | 1200 nM |  |
| CCOc1ncccc1-n1nc2c(c1C)C(=O)N(c1cc(C)c(=O)n(C)c1)C2c1ccc(Cl)cc1 (centres unmarked) [Example 18b, 6-(4-chlorophenyl)-5-(1,5-dimethyl-6-oxo-1,6-dihydropyridin-3-yl)-2-(2-ethoxypyridin-3-yl)-3-methyl-5,6-dihydropyrrolo[3,4-c]pyrazol-4(2H)-one] |  | 93.1 nM | 21.7 nM | 41 nM | 1300 nM | 44 nM |
| COc1ncc(-n2nc3c(c2C)C(=O)N(c2cc(Cl)c(=O)n(C)c2)C3c2ccc(Cl)cc2)cn1 (centres unmarked) [Example 8b, 5-(5-chloro-1-methyl-6-oxo-1,6-dihydropyridin-3-yl)-6-(4-chlorophenyl)-2-(2-methoxypyrimidin-5-yl)-3-methyl-5,6-dihydropyrrolo[3,4-c]pyrazol-4(2H)-one] |  | 562 nM | 58 nM | 210 nM | 5400 nM | 293 nM |
| Cc1cc(N2C(=O)c3c(C4CC4)nn(C)c3C2c2ccc(Cl)cc2)cn(C)c1=O (centres unmarked) [Example 1, 6-(4-chlorophenyl)-3-cyclopropyl-5-(1,5-dimethyl-6-oxo-1,6-dihydropyridin-3-yl)-1-methyl-5,6-dihydropyrrolo[3,4-c]pyrazol-4(1H)-one] |  | 104 nM | 33.3 nM | 28 nM | 1400 nM | 44.9 nM |
| COc1ncccc1-n1nc2c(c1C)C(=O)N(c1cc(Cl)c(=O)n(C)c1)C2c1ccc(Cl)cc1 (centres unmarked) [Example 7b, 5-(5-chloro-1-methyl-6-oxo-1,6-dihydropyridin-3-yl)-6-(4-chlorophenyl)-2-(2-methoxypyridin-3-yl)-3-methyl-5,6-dihydropyrrolo[3,4-c]pyrazol-4(2H)-one] |  | 285 nM | 74.4 nM | 41 nM | 1900 nM | 104 nM |
| COc1ncc(-n2nc(C)c3c2C(c2ccc(Cl)cc2)N(c2cc(Cl)c(=O)n(C)c2)C3=O)cn1 (centres unmarked) [Example 8a, 5-(5-chloro-1-methyl-6-oxo-1,6-dihydropyridin-3-yl)-6-(4-chlorophenyl)-1-(2-methoxypyrimidin-5-yl)-3-methyl-5,6-dihydropyrrolo[3,4-c]pyrazol-4(1H)-one] |  | 493 nM | 298 nM | 170 nM | > 37000 nM | 127 nM |
| COCCn1nc(C2CC2)c2c1C(c1ccc(Cl)cc1)N(c1cc(C)c(=O)n(C)c1)C2=O (centres unmarked) [Example 4, 6-(4-chlorophenyl)-3-cyclopropyl-5-(1,5-dimethyl-6-oxo-1,6-dihydropyridin-3-yl)-1-(2-methoxyethyl)-5,6-dihydropyrrolo[3,4-c]pyrazol-4(1H)-one] |  | 100 nM | 29.9 nM | 14 nM | 3000 nM | 45.6 nM |
| Cc1nn(C2CC2)c2c1C(=O)N(c1cc(C)c(=O)n(C)c1)C2c1ccc(Cl)cc1 (centres unmarked) [Example 11, 6-(4-chlorophenyl)-1-cyclopropyl-5-(1,5-dimethyl-6-oxo-1,6-dihydropyridin-3-yl)-3-methyl-5,6-dihydropyrrolo[3,4-c]pyrazol-4(1H)-one] |  | 82.2 nM | 41.7 nM | 40 nM | 1900 nM | 36.6 nM |
| Cc1nn(-c2cccnc2F)c2c1C(=O)N(c1cc(C)c(=O)n(C)c1)C2c1ccc(Cl)cc1 (centres unmarked) [Example 19, 6-(4-chlorophenyl)-5-(1,5-dimethyl-6-oxo-1,6-dihydropyridin-3-yl)-1-(2-fluoropyridin-3-yl)-3-methyl-5,6-dihydropyrrolo[3,4-c]pyrazol-4(1H)-one] |  | 164 nM | 66.7 nM | 100 nM | 3800 nM | 91 nM |
| COc1ncccc1-c1nn(C)c2c1C(=O)N(c1cc(C)c(=O)n(C)c1)[C@@H]2c1ccc(Cl)cc1 [Example 16, (R)-6-(4-chlorophenyl)-5-(1,5-dimethyl-6-oxo-1,6-dihydropyridin-3-yl)-3-(2-methoxypyridin-3-yl)-1-methyl-5,6-dihydropyrrolo[3,4-c]pyrazol-4(1H)-one] |  | 92.2 nM | 60.6 nM | 56 nM | 545 nM | 43 nM |
| Cc1cc(N2C(=O)c3c(C4CC4)nn(-c4ccnn4C)c3C2c2ccc(Cl)cc2)cn(C)c1=O (centres unmarked) [Example 5, 6-(4-chlorophenyl)-3-cyclopropyl-5-(1,5-dimethyl-6-oxo-1,6-dihydropyridin-3-yl)-1-(1-methyl-1H-pyrazol-5-yl)-5,6-dihydropyrrolo[3,4-c]pyrazol-4(1H)-one] |  | 179 nM | 138 nM | 96 nM | 5000 nM | 101 nM |
| Cc1nn(C(C)C)c2c1C(=O)N(c1cc(C)c(=O)n(C)c1)C2c1ccc(Cl)cc1 (centres unmarked) [Example 12, 6-(4-chlorophenyl)-5-(1,5-dimethyl-6-oxo-1,6-dihydropyridin-3-yl)-1-isopropyl-3-methyl-5,6-dihydropyrrolo[3,4-c]pyrazol-4(1H)-one] |  | 112 nM | 48.4 nM | 67 nM | 1400 nM | 62.2 nM |
| Cc1nn(C)c2c1C(=O)N(c1cc(C)c(=O)n(C)c1)C2c1ccc(Cl)cc1 (centres unmarked) [Example 10, 6-(4-chlorophenyl)-5-(1,5-dimethyl-6-oxo-1,6-dihydropyridin-3-yl)-1,3-dimethyl-5,6-dihydropyrrolo[3,4-c]pyrazol-4(1H)-one] |  | 132 nM | 108 nM | 89 nM | 3000 nM | 76.4 nM |
